# From US5874442A, “Tricyclic amides useful for inhibition of G-protein function and for treatment of proliferative disease” (Schering-Plough Corporation, priority 1996, dated 1999)
# Counter-ions that a name gives are not always drawn. Like-named read-outs stand apart in the source and are kept apart here.
# Key:
# [1] = tested on: DLD-1 (human colon carcinoma cells); assay: In vivo anti-tumor studies, subcutaneous DLD-1 tumors in athymic nu/nu mice; parameters: species or system athymic nu/nu female mice; conditions: Mus musculus, DLD-1, po, read-out: Average % Tumor Inhibition
# Method: Tumor bearing animals are selected and randomized when the tumors are established. Animals are treated with vehicle (β-cyclodextrin for i.p. or corn oil for p.o.) only or with a compound of the present invention in vehicle four times a day (QID) for 7 days per week for 4 weeks. The percent inhibition of tumor growth relative to vehicle controls is determined by tumor measurements.
# [2] = tested on: T24-BAG4 human bladder carcinoma cells expressing an activated H-ras gene; assay: Cell mat assay, T24-BAG4 tumor cells; assay type: cell-based; conditions: read-out: Tumor (T-24) IC50
# Method: (§1) Compound-induced colony inhibition was assayed by addition of serial dilutions of compound directly to the growth medium 24 h after tumor cell planting, and incubating cells for an additional 14 d to allow colony formation. Assays were terminated by rinsing monolayers twice with phosphate-buffered saline (PBS), fixing the monolayers with a 1% glutaraldehyde solution in PBS, then visualizing tumor cells by staining with X-Gal (Price, J., et al., Lineage analysis in the vertebrate nervous system by retrovirus-mediated gene transfer, Proc. Natl. Acad. Sci.84, 156-160(1987)). […] Both IC50 values were obtained by determining the density of tumor cells and mat cells by visual inspection and enumeration of cells per colony and the number of colonies under the microscope.
# [3] = tested on: Normal human HEPM fibroblasts; assay: Cell mat assay, normal cells (cell mat); assay type: cell-based; conditions: read-out: Normal IC50
# Method: as §1
# [4] = target: T1, farnesyl protein transferase (FPT) (Rattus norvegicus, UniProt Q02293+Q04631); assay: In vitro enzyme assay: inhibition of farnesyl protein transferase (FPT), [3H]farnesyl transfer to Ras-CVLS; assay type: biochemical
# T1 construct: were partially purified from rat brain by ammonium sulfate fractionation; from tissue; host or cells: rat brain (ammonium sulfate fractionation, Q-Sepharose)
# Method: 1. In vitro enzyme assays:
# Inhibition of farnesyl protein transferase and geranylgeranyl protein transferase.
# Human farnesyl protein transferase was also expressed in E. coli, using cDNA clones encoding both the a and b subunits. […] Human farnesyl protein transferase was partially-purified from the soluble protein fraction of E. coli as described above. […] Two forms of val^12 -Ha-Ras protein were prepared as substrates for these enzymes, differing in their carboxy terminal sequence. One form terminated in cysteine-valine-leucine-serine (Ras-CVLS) the other in cystein-valine-leucine-leucine (Ras-CVLL). Ras-CVLS is a substrate for the farnesyl protein transferase while Ras-CVLL is a substrate for geranylgeranyl protein transferase I. The cDNAs encoding these proteins were constructed so that the proteins contain an amino-terminal extension of 6 histidine residues. Both proteins were expressed in Escherichia coli and purified using metal chelate affinity chromatography. The radiolabelled isoprenyl pyrophosphate substrates, [^3 H]farnesyl pyrophosphate and [^3 H] geranylgeranyl pyrophosphate, were purchased from DuPont/New England Nuclear.
# The reaction was allowed to proceed for 30 minutes at room temperature and then stopped with 0.5 ml of 4% sodium dodecyl sulfate (SDS) followed by 0.5 ml of cold 30% TCA. Samples were allowed to sit on ice for 45 minutes and precipitated Ras protein was then collected on GF/C filter paper mats using a Brandel cell harvester. […] Percent inhibition was calculated relative to the DMSO vehicle control.
# [5] = tested on: Ras-CVLS processing in COS cells; assay: Cell-based COS cell assay: inhibition of Ras processing (Ras-CVLS); parameters: species or system monkey
# Excerpt: Transient expression of val^12 -Ha-Ras-CVLS and […] -Ha-Ras-CVLL in COS monkey kidney cells: Effect of farnesyl protein transferase inhibitors on Ras processing and on disordered cell growth induced by transforming Ras.
# COS monkey kidney cells were transfected by electroporation with the plasmid pSV-SPORT (Gibco/BRL) containing a cDNA insert encoding either Ras-CVLS or Ras-CVLL, leading to transient overexpression of a Ras substrate for either farnesyl protein transferase or geranylgeranyl protein transferase I, respectively (see above).
# Following electroporation, cells were plated into 6-well tissue culture dishes containing 1.5 ml of Dulbecco's-modified Eagle's media (GIBCO, Inc.) supplemented with 10% fetal calf serum and the appropriate farnesyl protein transferase inhibitors. After 24 hours, media was removed and fresh media containing the appropriate drugs was re-added.
# 48 hours after electroporation cells were examined under the microscope to monitor disordered cell growth induced by transforming Ras. Cells expressing transforming Ras become more rounded and refractile and overgrow the monolayer, reminiscent of the transformed phenotype. Cells were then photographed, washed twice with 1 ml of cold phosphate-buffered saline (PBS) and removed from the dish by scraping with a rubber policeman into 1 ml of a buffer containing 25 mM Tris, pH 8.0; 1 mM ethylenediamine tetraacetic acid; 1 mM phenylmethylsulfonyl fluoride; […]; and 0.1 mM pepstatin. Cells were lysed by homogenization and cell debris was removed by centrifugation at 2000× g for 10 min.
# Cellular protein was precipitated by addition of ice-cold trichloroacetic acid and redissolved in […] of SDS-electrophoresis sample buffer. […] Proteins resolved on the gels were electroblotted onto nitrocellulose membranes for immunodetection.
# After washing, membranes were incubated for one hour at room temperature with a 1:5000 dilution of secondary antibody, rabbit anti-rat lgG conjugated to horseradish peroxidase, in PBS containing 1% fetal calf serum. The presence of processed and unprocessed Ras-CVLS or Ras-CVLL was detected using a colorimetric peroxidase reagent (4-chloro-1-naphthol) as described by the manufacturer (Bio-Rad).
# [6] = tested on: SW620-BAG human colon carcinoma cells expressing an activated K-ras gene; assay: Cell mat assay, SW620-BAG tumor cells; assay type: cell-based
# Method: as §1
# (§2) Additional assays were carried out by following essentially the same procedure as described above, but with substitution of alternative indicator tumor cell lines in place of the T24-BAG cells. The assays were conducted using either DLD-1-BAG human colon carcinoma cells expressing as activated K-ras gene or SW620-BAG human colon carcinoma cells expressing an activated K-ras gene.
# [7] = tested on: DLD-1-BAG human colon carcinoma cells; assay: Cell mat assay, DLD-1-BAG tumor cells; assay type: cell-based; conditions: read-out: Tumor (DLD-1) IC50
# Method: as §1, §2
# [8] = […], Experiment No. 1, 50 mg/kg p.o., QID, 7 days per week for 4 weeks
# [9] = […], Experiment No. 2, 10 mg/kg p.o., QID, 7 days per week for 4 weeks
# [10] = Homo sapiens, 336 h, Mat assay, 14 d
# [11] = Homo sapiens, SW-620, 336 h, Mat assay, 14 d, read-out: Tumor (SW620) IC50
# [12] = Table 3, COS cells, read-out: Inhibition of Ras Processing IC50
# [13] = Primates, COS, read-out: Inhibition of Ras Processing IC50, Table 3, COS cells
# [14] = […], Experiment No. 3, 50 mg/kg p.o., QID, 7 days per week for 4 weeks
# [15] = […], Experiment No. 4, 10 mg/kg p.o., QID, 7 days per week for 4 weeks
compound,measurement,setting,value
NC(=O)N1CCC(CC(=O)N2CCN([C@H]3c4ccc(Cl)c(Br)c4CCc4cc(Br)cnc43)CC2)CC1 [Example 6],inhibition in vivo at 50 mg/kg,[1]; [8],61.2%
same,inhibition in vivo at 10 mg/kg,[1]; [9],35.4%
O=C(Cc1cc[n+]([O-])cc1)N1CCC(=C2c3ncc(Br)cc3CCc3cc(Cl)cc(Br)c32)CC1 [Example 7B],IC50,[2]; [10],< 1600 nM
same,IC50,"[3]; Mat assay, 14 d, normal cells",> 25000 nM
O=C(Cc1cc[n+]([O-])cc1)N1CCC([C@@H]2c3ncc(Br)cc3CCc3cc(Cl)cc(Br)c32)CC1 [Example 9A],IC50,[2]; [10],< 1600 nM
same,IC50,[4],> 88 nM
same,IC50,"[5]; Primates, COS, Table 3, COS cells, read-out: Inhibition of Ras Processing IC50",850 nM
NC(=O)N1CCC(CC(=O)N2CCC(=C3c4ncc(Br)cc4CCc4cc(Cl)cc(Br)c43)CC2)CC1 [Example 8A],IC50,[2]; [10],< 1600 nM
same,IC50,[6]; [11],3100 nM
same,IC50,[5]; [12],> 1000 nM
same,IC50,"[7]; Homo sapiens, DLD-1, 336 h, Mat assay, 14 d",< 1600 nM
same,IC50,"[3]; Homo sapiens, Fibroblast, 336 h, Mat assay, 14 d, normal cells",> 25000 nM
"NC(=O)N1CCC(CC(=O)N2CCN(C3c4ncc(Br)cc4CCc4cc(Cl)cc(Br)c43)CC2)CC1 (single isomer, unassigned) [Example 12B]",inhibition in vivo at 50 mg/kg,[1]; [8],83%
same,inhibition in vivo at 10 mg/kg,[1]; [9],37.7%
O=C(Cc1cc[n+]([O-])cc1)N1CCN([C@H]2c3ncc(Br)cc3CCc3cc(Cl)cc(Br)c32)CC1 [Example 11A],inhibition in vivo at 10 mg/kg,[1]; […],44.8%
same,inhibition in vivo at 50 mg/kg,[1]; […],63.8%
O=C(Cc1cc[n+]([O-])cc1)N1CCC([C@H]2c3ncc(Br)cc3CCc3cc(Cl)cc(Br)c32)CC1 [Example 9],inhibition in vivo at 50 mg/kg,[1]; [8],68%
same,inhibition in vivo at 10 mg/kg,[1]; [9],19%
O=C(Cc1cc[n+]([O-])cc1)N1CCC(=C2c3ncc(Br)cc3CCc3cc(Cl)cc(Br)c32)CC1 (racemic) [Example 7],inhibition in vivo at 50 mg/kg,[1]; [8],76.5%
same,inhibition in vivo at 10 mg/kg,[1]; [9],35.1%
O=C(Cc1cc[n+]([O-])cc1)N1CCN([C@H]2c3ccc(Cl)c(Br)c3CCc3cc(Br)cnc32)CC1 [Example 5],inhibition in vivo at 10 mg/kg,[1]; […],24%
same,inhibition in vivo at 50 mg/kg,[1]; […],38%
O=C(Cc1cc[n+]([O-])cc1)N1CCN([C@@H]2c3ncc(Br)cc3CCc3cc(Cl)cc(Br)c32)CC1 [Example 11B],inhibition in vivo at 10 mg/kg,[1]; […],17%
same,inhibition in vivo at 50 mg/kg,[1]; […],38.8%
"O=C(Cc1cc[n+]([O-])cc1)N1CCC(C2c3ccc(Cl)c(Br)c3CCc3cc(Br)cnc32)CC1 (single isomer, unassigned) [Example 14A]",inhibition in vivo at 50 mg/kg,[1]; [8],59%
same,inhibition in vivo at 10 mg/kg,[1]; [9],48%
"NC(=O)N1CCC(CC(=O)N2CCC(C3c4ccc(Cl)c(Br)c4CCc4cc(Br)cnc43)CC2)CC1 (single isomer, unassigned) [Example 13]",inhibition in vivo at 50 mg/kg,[1]; [8],61%
same,inhibition in vivo at 10 mg/kg,[1]; [9],7%
same,IC50,[6]; [11],> 1600 nM
O=C(Cc1cc[n+]([O-])cc1)N1CCC(=C2c3ncc(Br)cc3CCc3cc(Cl)cc(Br)c32)CC1 [Example 7A],inhibition in vivo at 10 mg/kg,"[1]; Experiment No. 2, 10 mg/kg p.o., QID, 7 days per week for 4 weeks",33.7%
same,IC50,[5]; [12],> 1000 nM
NC(=O)N1CCC(CC(=O)N2CCN([C@@H]3c4ccc(Cl)cc4CCc4cc(Br)cnc43)CC2)CC1 [Example 17],IC50,[6]; [11],25000 nM
NC(=O)N1CCC(CC(=O)N2CCC(C3c4ccc(Cl)c(Br)c4CCc4cc(Br)cnc43)CC2)CC1 (stereo not shown) [Example 13B],IC50,[6]; [11],> 3100 nM
O=C(Cc1cc[n+]([O-])cc1)N1CCN([C@H]2c3ccc(Cl)c(Br)c3CCc3cc(Br)cnc32)CC1 [Example 5 · HCl salt],IC50,[5]; [13],10 nM
"O=C(Cc1cc[n+]([O-])cc1)N1CCC(C2c3ccc(Cl)c(Br)c3CCc3cc(Br)cnc32)CC1 (single isomer, unassigned) [Example 14A · HCl salt]",IC50,"[4]; Table 1, Ras-CVLS substrate, 30 minutes at room temperature, read-out: FPT IC50",< 3.1 nM
O=C(Cc1cc[n+]([O-])cc1)N1CCN([C@@H]2c3ccc(Cl)c(Br)c3CCc3cc(Br)cnc32)CC1 [Example 5A],IC50,"[2]; Homo sapiens, 336 h",12500 nM
same,IC50,[4],> 99 nM
same,IC50,"[6]; Homo sapiens, SW-620, 336 h, read-out: Tumor (SW620) IC50, Mat assay, 14 d",> 25000 nM
same,IC50,"[7]; Homo sapiens, DLD-1, 336 h",12500 nM
same,IC50,"[3]; Homo sapiens, Fibroblast, 336 h",> 25000 nM
O=C(Cc1cc[n+]([O-])cc1)N1CCN(C2c3ncc(Br)cc3CCc3cc(Cl)cc(Br)c32)CC1 (stereo not shown) [Example 11],IC50,[5]; [13],< 250 nM
NC(=O)N1CCC(CC(=O)N2CCC(=C3c4ncc(Br)cc4CCc4cc(Cl)cc(Br)c43)CC2)CC1 [Example 8B],IC50,"[2]; Mat assay, 14 d",< 1600 nM
same,inhibition in vivo at 50 mg/kg,[1]; [8],62.5%
same,inhibition in vivo at 10 mg/kg,[1]; [9],29.2%
same,IC50,"[6]; Mat assay, 14 d, read-out: Tumor (SW620) IC50",3100 nM
same,IC50,[5]; [12],280 nM
same,IC50,"[7]; Mat assay, 14 d",< 1600 nM
same,IC50,"[3]; Mat assay, 14 d, normal cells",> 25000 nM
NC(=O)N1CCC(CC(=O)N2CCC(C3c4ccc(Cl)cc4C=Cc4cc(Br)cnc43)CC2)CC1 (stereo not shown) [Example 1],inhibition in vivo at 50 mg/kg,[1]; [8],38.2%
same,inhibition in vivo at 10 mg/kg,[1]; [9],17.2%
same,inhibition in vivo at 50 mg/kg,[1]; [14],35.4%
same,inhibition in vivo at 10 mg/kg,[1]; [15],34%
NC(=O)N1CCC(CC(=O)N2CCC(C3c4ccc(Cl)cc4CCc4cc(Br)cnc43)CC2)CC1 (stereo not shown) [Example 4],inhibition in vivo at 50 mg/kg,[1]; [8],41%
same,inhibition in vivo at 10 mg/kg,[1]; [9],18%
same,inhibition in vivo at 50 mg/kg,[1]; [14],41%
same,inhibition in vivo at 10 mg/kg,[1]; [15],14%
O=C(Cc1cc[n+]([O-])cc1)N1CCN([C@H]2c3ccc(Cl)cc3CCc3cc(Br)cnc32)CC1 [Example 16B],inhibition in vivo at 10 mg/kg,[1]; […],50%
same,inhibition in vivo at 50 mg/kg,[1]; […],77%
